Measured values reported in paper PMC9005971, “Discovery of 2-(4-Acrylamidophenyl)-Quinoline-4-Carboxylic Acid Derivatives as Potent SIRT3 Inhibitors” (Frontiers in Chemistry, 2022).

How the values were obtained:
SIRT3 = molecular target: T1, SIRT3 (Homo sapiens, UniProt Q9NTG7); assay: SIRT3 enzyme inhibitory assay (fluorescence); assay type: biochemical; conditions: for activity at 0.01 µM / activity at 0.033 µM / activity at 0.1 µM / activity at 0.333 µM / activity at 1 µM / activity at 3.3 µM / activity at 10 µM / activity at 33 µM / activity at 100 µM: SIRT3 enzyme activity; for activity at 0.01 µM: 10 nM; for activity at 0.033 µM: 33 nM; for activity at 0.1 µM: 100 nM; for activity at 0.333 µM: 333 nM
T1 sequence (Q9NTG7 1-399): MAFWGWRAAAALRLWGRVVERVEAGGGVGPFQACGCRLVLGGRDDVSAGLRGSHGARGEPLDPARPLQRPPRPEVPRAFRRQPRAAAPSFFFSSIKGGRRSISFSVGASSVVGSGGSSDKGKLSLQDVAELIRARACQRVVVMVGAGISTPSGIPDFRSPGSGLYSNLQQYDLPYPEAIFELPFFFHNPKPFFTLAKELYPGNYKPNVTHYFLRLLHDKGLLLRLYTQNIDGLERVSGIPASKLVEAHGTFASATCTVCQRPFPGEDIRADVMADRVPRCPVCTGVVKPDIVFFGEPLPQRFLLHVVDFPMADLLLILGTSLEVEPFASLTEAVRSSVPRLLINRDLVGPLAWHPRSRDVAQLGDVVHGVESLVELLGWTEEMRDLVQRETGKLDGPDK
Protocol: (§1) All of the enzymatic reactions were conducted at 37°C for 30 min. […] The compounds were diluted in 10% DMSO and 5 ul of the dilution was added to each reaction mixture (50 ul). The assay was performed by quantitating the amount of fluorescent product generated from the enzyme reaction. Fluorescence intensity is then analyzed at excitation wavelength of 350–360 nm and emission wavelength of 450–460 nm on a SpectraMax M5 microtiter plate reader. The IC50 values were calculated using Prism GraphPad software.

SIRT2 = molecular target: T2, SIRT2 (Homo sapiens, UniProt Q8IXJ6); assay: SIRT2 enzyme inhibitory assay (fluorescence); assay type: biochemical; conditions: for activity at 0.01 µM / activity at 0.033 µM / activity at 0.1 µM / activity at 0.333 µM / activity at 1 µM / activity at 3.3 µM / activity at 10 µM / activity at 33 µM / activity at 100 µM: SIRT2 enzyme activity; for activity at 0.01 µM: 10 nM; for activity at 0.033 µM: 33 nM; for activity at 0.1 µM: 100 nM; for activity at 0.333 µM: 333 nM
T2 sequence (Q8IXJ6 1-389): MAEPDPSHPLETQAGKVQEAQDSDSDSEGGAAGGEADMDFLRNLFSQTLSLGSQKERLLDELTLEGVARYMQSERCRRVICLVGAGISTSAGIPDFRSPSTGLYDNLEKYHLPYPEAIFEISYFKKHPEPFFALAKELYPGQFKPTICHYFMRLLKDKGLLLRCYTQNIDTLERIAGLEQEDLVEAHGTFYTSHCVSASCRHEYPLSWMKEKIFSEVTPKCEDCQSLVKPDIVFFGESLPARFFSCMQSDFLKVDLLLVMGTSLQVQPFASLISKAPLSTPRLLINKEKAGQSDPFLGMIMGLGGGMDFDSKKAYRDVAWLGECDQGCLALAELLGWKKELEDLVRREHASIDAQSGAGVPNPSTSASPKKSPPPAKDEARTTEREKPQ
Protocol: as §1

MOLM-13 cells = assay: In vitro antiproliferative CCK-8 assay, MOLM-13; assay type: cell-based; conditions: Homo sapiens, 72 h, read-out: IC50 growth inhibition MOLM-13
Protocol: The proliferation of THP-1, MOLM-13, SEM and MV4-11 cells was tested by CCK-8 assay. Briefly, cells were seeded in 96-well plate with about 5 × 10^3 cells in each well. The cells were treated with P6 or Ara-C (0–10 µM) after 24 h of incubation. CCK-8 reagent ([…]) was added to each well after 72 h of incubation, and cells were incubated at 37°C for 4 h. The light absorbance at 450 nm was measured by using an Opsys microplate reader (Dynex Technologirs, Chantilly, VA, United States). Results are illustrated as percent of cell viability normalized to DMSO-treated control cells.

[1] = system: THP-1, MOLM-13, SEM and MV4-11 cells; assay: Cell apoptosis analysis, MLLr leukemic cells; assay type: cell-based; conditions: 72 h, flow cytometry
Protocol: THP-1, MOLM-13, SEM and MV4-11 cells were treated with P6 (0.45–4 µM) or Ara-C (0.1–2.0 µM) for 72 h, collected and resuspended in 1× binding buffer. Cells were incubated with FITC Annexin V and PI double labeling for 30 min in the dark at room temperature and measured by flow cytometry.

[2] = system: THP-1, MOLM-13, SEM and MV4-11 cells; assay: Cell morphology / differentiation (Wright-Giemsa staining); assay type: cell-based; conditions: 72 h
Protocol: THP-1, MOLM-13, SEM and MV4-11 cells were incubated with P6 or Ara-C for 72 h and then collected. Slides were made by cytospin and subsequently air dried. The cells were stained with Wright-Giemsa and observed for morphological features using a light microscope.

Question: How did the activity at 0.01 µM (SIRT3; Repeat1) turn out when C=CC(=O)Nc1ccc(-c2cc(C(=O)N3CCN(c4ccccc4F)CC3)c3ccccc3n2)cc1 [Compound P6, N-(4-{4-[4-(2-Fluoro-phenyl)-piperazine-1-carbonyl]-quinolin-2-yl}-phenyl)-acrylamide] was run?
Answer: 101%

Question: What about the activity at 0.01 µM (SIRT3; Repeat2) of the same compound?
Answer: 99%

Question: And the activity at 0.033 µM (SIRT3; Repeat1)?
Answer: 98%

Question: What about the activity at 0.033 µM (SIRT3; Repeat2) of the same compound?
Answer: 97%

Question: What about the activity at 0.1 µM (SIRT3; Repeat1) of the same compound?
Answer: 104%

Question: What about the activity at 0.1 µM (SIRT3; Repeat2) of the same compound?
Answer: 95%

Question: And the activity at 0.333 µM (SIRT3; Repeat1)?
Answer: 95%

Question: And the activity at 0.333 µM (SIRT3; Repeat2)?
Answer: 88%

Question: And the activity at 1 µM (SIRT3; Repeat1)?
Answer: 76%

Question: And the activity at 1 µM (SIRT3; Repeat2)?
Answer: 74%

Question: And the activity at 3.3 µM (SIRT3; Repeat1)?
Answer: 61%

Question: What about the activity at 3.3 µM (SIRT3; Repeat2) of the same compound?
Answer: 59%

Question: And the activity at 10 µM (SIRT3; Repeat1)?
Answer: 38%

Question: And the activity at 10 µM (SIRT3; Repeat2)?
Answer: 38%

Question: And the activity at 33 µM (SIRT3; Repeat1)?
Answer: 33%

Question: What about the activity at 33 µM (SIRT3; Repeat2) of the same compound?
Answer: 31%

Question: What about the activity at 100 µM (SIRT3; Repeat1) of the same compound?
Answer: 24%

Question: And the activity at 100 µM (SIRT3; Repeat2)?
Answer: 21%

Question: What about the inhibition at 10 µM (SIRT3; dose of 10 μM, mean of three experiments, read-out: SIRT3 percentage inhibitory rate) of the same compound?
Answer: 65.2 ± 3.26%

Question: And the “selectivity among SIRT1-3” value (SIRT3; enzyme selectivity test, SIRT3 vs SIRT1 and SIRT2)?
Answer: can selectively inhibit SIRT3

Question: And the IC50 (SIRT3; mean of two experiments)?
Answer: 7.2 ± 0.5 µM

Question: And the activity at 0.01 µM (SIRT2; Repeat1)?
Answer: 100%

Question: What about the activity at 0.01 µM (SIRT2; Repeat2) of the same compound?
Answer: 98%

Question: And the activity at 0.033 µM (SIRT2; Repeat1)?
Answer: 96%

Question: What about the activity at 0.033 µM (SIRT2; Repeat2) of the same compound?
Answer: 100%

Question: And the activity at 0.1 µM (SIRT2; Repeat1)?
Answer: 101%

Question: And the activity at 0.1 µM (SIRT2; Repeat2)?
Answer: 101%

Question: What about the activity at 0.333 µM (SIRT2; Repeat1) of the same compound?
Answer: 100%

Question: What about the activity at 0.333 µM (SIRT2; Repeat2) of the same compound?
Answer: 95%

Question: And the activity at 1 µM (SIRT2; Repeat1)?
Answer: 93%

Question: And the activity at 1 µM (SIRT2; Repeat2)?
Answer: 83%

Question: What about the activity at 3.3 µM (SIRT2; Repeat1) of the same compound?
Answer: 83%

Question: And the activity at 3.3 µM (SIRT2; Repeat2)?
Answer: 73%

Question: And the activity at 10 µM (SIRT2; Repeat1)?
Answer: 64%

Question: What about the activity at 10 µM (SIRT2; Repeat2) of the same compound?
Answer: 65%

Question: And the activity at 33 µM (SIRT2; Repeat1)?
Answer: 51%

Question: What about the activity at 33 µM (SIRT2; Repeat2) of the same compound?
Answer: 48%

Question: What about the activity at 100 µM (SIRT2; Repeat1) of the same compound?
Answer: 36%

Question: What about the activity at 100 µM (SIRT2; Repeat2) of the same compound?
Answer: 39%

Question: What about the IC50 (SIRT2; mean of two experiments) of the same compound?
Answer: 33.5 ± 1.6 µM

Question: What about the IC50 (MOLM-13 cells) of the same compound?
Answer: 0.98 µM

Question: And the induction of apoptosis [1]?
Answer: no significant apoptosis

Question: What about the “cell differentiation / morphology” value [2] of the same compound?
Answer: induced the cell differentiation accompanied with morphological changes
